# Assays:
# Format in all cases: in vivo, human
# [1] = system: Nox2; test: Serum Nox2 measured as soluble Nox2-derived peptide (sNox2dp) by ELISA, post-prandial cross-over study; conditions: healthy subjects (n=20), 20 mg immediately before lunch, T120 (2 h after meal) vs T0
# Description: (§1) The design was a randomized, double blind, placebo controlled, crossover study (FIG. 1). Participants were randomized to receive 20 mg of oleuropein or 20 mg of placebo immediately before a lunch. The randomization was carried out by a procedure based on a random numeric sequence. Placebo and active capsules were identical in appearance and both were odourless. The quality control on both capsules was performed confirming their safety. None of the participants were receiving any vitamin or antioxidant supplements, statin or antiplatelet drugs in the month preceding the beginning of the study. […] Participants were assessed at baseline (T0) and two hours after lunch (T120). Glycaemic profile, which included glucose, insulin, dipeptidyl-peptidase-4 (DPP-4) activity and glucagon-like peptide-(GLP-1) and oxidative stress, which included sNox2-dp, 8-iso-PGF2α and platelet p47phox phosphorylation, were analysed before and two hours after meal. […]
# Serum Nox2 was measured as soluble Nox2-derived peptide (sNOX2dp) with an ELISA method, which was partly modified in comparison to that previously reported (Pignatelli et al., 2010; WO 2010142794 A1). […]
# 4) quantification of immobilized antibody enzyme conjugates by monitoring HRP activities in the presence of the substrate 3,3′,5,5′-tetramethylbenzidine (TMB). […] Values were expressed as pg/ml; intra-assay and inter-assay coefficients of variation were <10%.
# [2] = system: 8-iso-PGF2α; test: Serum isoprostanes (8-iso-PGF2α-III) enzyme immunoassay, post-prandial cross-over study; conditions: healthy subjects (n=20), 20 mg immediately before lunch, T120 vs T0
# Description: as §1, with “study. Others exclusion criteria were: i) presence of malignancy, ii) presence of chronic inflammatory diseases, iii) alcohol intake, iv) smoking, v) pregnant or breast-feeding, vi) age less than 18 years.” for “study.”
# Serum isoprostanes (8-iso-PGF2α-III) were measured by the enzyme immunoassay method (DRG International) and expressed as pmol/L. Intra-assay and inter-assay coefficients of variation were <10%.
# [3] = system: p47phox; test: Western blot analysis of platelet p47phox phosphorylation, post-prandial cross-over study; conditions: healthy subjects (n=5), 20 mg immediately before lunch, T120 vs T0
# Description: as §1
# p47^phox phosphorylation was analysed in platelets prepared as previously described [13 Carnevale et al., 2014 a)]. […] Then, the membranes were incubated with goat anti-rabbit secondary antibody (Santa Cruz Biotechnology—Product Code sc2004, 1:5000) or with goat anti-mouse secondary antibody (Santa Cruz Biotechnology—Product Code sc2005, 1:5000) and then the immune complexes were detected by enhanced chemiluminescence substrate. […]
# [4] = Serum glucose concentration, post-prandial cross-over study
# Description: as §1, with “study. Others exclusion criteria were: i) presence of malignancy, ii) presence of chronic inflammatory diseases, iii) alcohol intake, iv) smoking, v) pregnant or breast-feeding, vi) age less than 18 years.” for “study.”
# (§2) Glucose and insulin were measured in serum samples using ELISA commercial Kit (Arbor Assay and DRG International, respectively). Glucose values were expressed as mg/dl whereas insulin values were expressed as μIU/ml.
# [5] = system: insulin; test: Serum insulin concentration, post-prandial cross-over study; conditions: healthy subjects (n=20), 20 mg immediately before lunch, T120 vs T0
# Description: as §1, with “study. Others exclusion criteria were: i) presence of malignancy, ii) presence of chronic inflammatory diseases, iii) alcohol intake, iv) smoking, v) pregnant or breast-feeding, vi) age less than 18 years.” for “study.”
# as §2
# [6] = system: GLP1; test: Serum glucagon like peptide-1 (GLP1) concentration, post-prandial cross-over study; conditions: healthy subjects (n=20), 20 mg immediately before lunch, T120 vs T0
# Description: as §1, with “study. Others exclusion criteria were: i) presence of malignancy, ii) presence of chronic inflammatory diseases, iii) alcohol intake, iv) smoking, v) pregnant or breast-feeding, vi) age less than 18 years.” for “study.”
# Commercial ELISA Kit (DRG International) was used for the quantitative determination of bioactive GLP1 (7-36) and (9-36) levels in serum. GLP1 values are expressed as pmol/L.
# [7] = system: DPP-4; test: Serum dipeptidyl peptidase-4 (DPP-4) activity, post-prandial cross-over study; conditions: healthy subjects (n=20), 20 mg immediately before lunch, T120 vs T0
# Description: as §1, with “study. Others exclusion criteria were: i) presence of malignancy, ii) presence of chronic inflammatory diseases, iii) alcohol intake, iv) smoking, v) pregnant or breast-feeding, vi) age less than 18 years.” for “study.”
# DDP4 activity was evaluated in serum samples by a commercial assay (Sigma Aldrich). […] DDP4 activity was expressed as μU/ml, where one unit of DPP4 is the amount of enzyme that will hydrolyze the DPP4 substrate to yield 1.0 μmole of AMC per minute at 37° C.
smiles,measurement,setting,value
C/C=C1/[C@H](O[C@@H]2O[C@H](CO)[C@@H](O)[C@H](O)[C@H]2O)OC=C(C(=O)OC)[C@H]1CC(=O)OCCc1ccc(O)c(O)c1 [oleuropein],"sNox2-dp, Δ change compared to baseline",[1],25%
same,"8-iso-PGF2α, Δ change compared to baseline",[2],8%
same,"platelet p47phox phosphorylation, Δ change compared to baseline",[3],42%
same,"blood glucose, Δ change compared to baseline","[4]; healthy subjects (n=20), 20 mg immediately before lunch, T120 vs T0",2%
same,average reduction of glucose,"[4]; healthy subjects, 20 mg versus placebo, post-prandial",14 mg/dL
same,"blood insulin, Δ change compared to baseline",[5],116%
same,"GLP1, Δ change compared to baseline",[6],19%
same,"DPP-4 activity, Δ change compared to baseline",[7],35%

# From US20210169910A1, “OLEUROPEIN FOR USE IN REDUCING POST-PRANDIAL GLYCAEMIA” (Università degli Studi di Roma "La Sapienza", priority 2017, published 2021)
